The values below are quoted from earlier work in US20240292871A1, “A SWEETENER OR SWEETNESS ENHANCER COMPOSITION” (ANALYTICON DISCOVERY GMBH, priority 2020, published 2024).

SMILES strings stand for the structures.

For this data set the following is noted: 5% sucrose in water.

With `COc1ccc([C@@H]2CC(=O)c3c(O)cc(O)cc3O2)cc1O` [hesperetin], the “enhances the sweetness of sucrose” value is 41%.
